The values below come from patent US12516048B2, “B-lactam compounds, their preparation and use as antibacterial agents” (NINGXIA ACADEMY OF AGRICULTURE AND FORESTRY SCIENCES, priority 2020, dated 2026).

What all share (assay): MIC determination, broth microdilution (CLSI)
Common to all, as to type: cell-based
On the technique in general: Dilution methods test growth across graded concentrations, often in twofold steps.

For one experiment, the system named is P. aeruginosa 9027. The conditions noted are these: Pseudomonas aeruginosa, Mueller Hinton Broth II, 37° C., 18-24 hours, read-out: Strain 10 MIC. Here is the method:
(§1) Compounds of this invention were tested for antimicrobial activity by determining minimum inhibitory concentrations (MICs, in μg/mL) using the broth microdilution method according to the guidelines of the Clinical Laboratories and Standards Institute (“Methods for Dilution Antimicrobial Susceptibility Tests for Bacteria that Grow Aerobically”, Approved standard, 7th ed., Clinical and Laboratory Standards Institute (CLSI) Document M7-A8, Wayne, Pa., USA, 2009.). AZT: aztreonam (AZT) and ceftazidime (CAZ) were used as control antibiotics. Test compounds were dissolved in DMSO. The compounds were then diluted in microbial growth medium (Mueller Hinton Broth II, cation adjusted) resulting in a final concentration range of 0.063-64 μg/mL in serial two-fold dilution. In all cases the final DMSO concentration was less than 0.5%. Bacteria were added to 96-well microtitre plates containing the two-fold dilutions of the compounds; the final cell density was approximately 5×10^5 colony forming units/mL (CFU/mL). Plates were incubated at 37° C. for 18-24 hours and read visually. The MIC, i.e. the lowest concentration of the test compound that inhibited visible growth of the bacteria, was recorded. The same assay conditions were used when the compounds of this invention were tested in combination with β-lactamase inhibitors. While the compounds of this invention were serially diluted as described above, a constant concentration of the inhibitor of 4 mg/L was used.
(§2) Bacterial strains that were used to evaluate the antimicrobial activity using the MIC determination included but were not limited to E. coli clinical isolate, E. coli 8739, K. pneumoniae clinical isolate, K. pneumoniae 700603, E. cloacae clinical isolate, E. cloacae 700323, A. baumannii clinical isolate, A. baumannii 19606, P. aeruginosa clinical isolate, P. aeruginosa 9027.

A further experiment has as its system K. pneumoniae 700603. The conditions noted are these: Klebsiella pneumoniae, Mueller Hinton Broth II, 37° C., 18-24 hours, read-out: Strain 4 MIC. On the procedure:
as §1, §2

Experiment [1] relates to E. cloacae clinical isolate. The conditions noted are these: Enterobacter cloacae, Mueller Hinton Broth II, 37° C., 18-24 hours, read-out: Strain5 MIC. Here is the method: as §1, §2
For a further experiment, the system named is E. coli clinical isolate. The conditions noted are these: Escherichia coli, Mueller Hinton Broth II, 37° C., 18-24 hours, read-out: Strain 1 MIC. On the procedure:
as §1, §2

For experiment [2], the system named is P. aeruginosa clinical isolate. The conditions noted are these: Pseudomonas aeruginosa, Mueller Hinton Broth II, 37° C., 18-24 hours, read-out: Strain 9 MIC. Here is the method: as §1, §2
Another experiment has as its system E. cloacae 700323. The conditions noted are these: Enterobacter cloacae, Mueller Hinton Broth II, 37° C., 18-24 hours, read-out: Strain 6 MIC. Here is the method: as §1, §2
Experiment [3] has as its system A. baumannii clinical isolate. The conditions noted are these: Acinetobacter baumannii, Mueller Hinton Broth II, 37° C., 18-24 hours, read-out: Strain 7 MIC. Here is the method:
as §1, §2

A further experiment relates to E. coli 8739. The conditions noted are these: Escherichia coli, Mueller Hinton Broth II, 37° C., 18-24 hours, read-out: Strain 2 MIC. On the procedure:
as §1, §2

The subject of experiment [4] is K. pneumoniae clinical isolate. The conditions noted are these: Klebsiella pneumoniae, Mueller Hinton Broth II, 37° C., 18-24 hours, read-out: Strain 3 MIC. On the procedure:
as §1, §2

The next experiment relates to A. baumannii 19606. The conditions noted are these: Acinetobacter baumannii, Mueller Hinton Broth II, 37° C., 18-24 hours, read-out: Strain8 MIC. On the procedure:
as §1, §2

Where only a bound is given, the exact number is not on record here.

Broadly, the MIC is the least concentration at which growth counts as inhibited.

`Cc1sc(N)nc1/C(=N/O[C@@H](COc1ccc(C(=N)N[C@@H]2CCNC2)cc1)C(=O)O)C(=O)N[C@@H]1C(=O)N(OS(=O)(=O)O)C1(C)C` [Example 6, (S)-2-((((Z)-1-(2-Amino-5-methylthiazol-4-yl)-2-(((S)-2,2-dimethyl-4-oxo-1-(sulfooxy)azetidin-3-yl)amino)-2-oxoethylidene)amino)oxy)-3-(4-(N-((R)-pyrrolidin-3-yl)carbamimidoyl)phenoxy)propanoic acid]: the MIC worked out at 2 µg/mL in the experiment with P. aeruginosa 9027; 1 µg/mL in the experiment with K. pneumoniae 700603; 2 µg/mL in experiment [1]; 1 µg/mL in the experiment with E. coli clinical isolate; 2 µg/mL in [2]; 4 µg/mL in the experiment on E. cloacae 700323. For the same molecule, the MIC in experiment [3] came to 8 µg/mL; in the experiment with E. coli 8739 it was 0.25 µg/mL; in experiment [4], 1 µg/mL; with A. baumannii 19606, 8 µg/mL.
On to `Cc1sc(N)nc1/C(=N/O[C@@H](COc1ccc(C(=N)N[C@@H]2CCCNC2)cc1)C(=O)O)C(=O)N[C@@H]1C(=O)N(OS(=O)(=O)O)C1(C)C` [Example 2, (S)-2-((((Z)-1-(2-Amino-5-methylthiazol-4-yl)-2-(((S)-2,2-dimethyl-4-oxo-1-(sulfooxy)azetidin-3-yl)amino)-2-oxoethylidene)amino)oxy)-3-(4-(N-((R)-piperidin-3-yl)carbamimidoyl)phenoxy)propanoic acid], for which the MIC with P. aeruginosa 9027 was 32 µg/mL; in the experiment on K. pneumoniae 700603, 64 µg/mL; in experiment [1], 64 µg/mL; with E. coli clinical isolate it was 4 µg/mL; in experiment [2], 8 µg/mL; with E. cloacae 700323, 32 µg/mL. Moreover, the minimal inhibitory concentration (MIC) worked out at 16 µg/mL in experiment [3], 2 µg/mL in the experiment with E. coli 8739, 32 µg/mL in experiment [4] and 16 µg/mL in the experiment on A. baumannii 19606.
On to `Cc1sc(N)nc1/C(=N/O[C@@H](COc1ccc(C(=N)NC2CNC2)cc1)C(=O)O)C(=O)N[C@@H]1C(=O)N(OS(=O)(=O)O)C1(C)C` [Example 4, (S)-2-((((Z)-1-(2-Amino-5-methylthiazol-4-yl)-2-(((S)-2,2-dimethyl-4-oxo-1-(sulfooxy)azetidin-3-yl)amino)-2-oxoethylidene)amino)oxy)-3-(4-(N-(azetidin-3-yl)carbamimidoyl)phenoxy)propanoic acid], for which the MIC in the experiment with P. aeruginosa 9027 was 4 µg/mL; in the experiment on K. pneumoniae 700603 it was 64 µg/mL; in experiment [1] it was 32 µg/mL; in the experiment with E. coli clinical isolate, 4 µg/mL; in experiment [2], 8 µg/mL; in the experiment with E. cloacae 700323 it was 32 µg/mL. The MIC in experiment [3] was found to be 32 µg/mL; in the experiment with E. coli 8739, 4 µg/mL; in [4], 32 µg/mL; in the experiment with A. baumannii 19606 it was 16 µg/mL.
With `Cc1sc(N)nc1/C(=N/O[C@@H](COc1ccc(C(=N)N[C@H]2CCCNC2)cc1)C(=O)O)C(=O)N[C@@H]1C(=O)N(OS(=O)(=O)O)C1(C)C` [Example 5, (S)-2-((((Z)-1-(2-Amino-5-methylthiazol-4-yl)-2-(((S)-2,2-dimethyl-4-oxo-1-(sulfooxy)azetidin-3-yl)amino)-2-oxoethylidene)amino)oxy)-3-(4-(N-((S)-piperidin-3-yl)carbamimidoyl)phenoxy)propanoic acid], the MIC in the experiment on P. aeruginosa 9027 amounted to 4 µg/mL; with K. pneumoniae 700603 it was 64 µg/mL; in [1], 64 µg/mL; in the experiment with E. coli clinical isolate, 4 µg/mL; in [2] it was 4 µg/mL; in the experiment on E. cloacae 700323, 32 µg/mL. In addition, the MIC in experiment [3] was found to be 32 µg/mL; in the experiment on E. coli 8739, 4 µg/mL; in experiment [4], 32 µg/mL; in the experiment on A. baumannii 19606 it was 16 µg/mL.
For `C[C@H]1[C@H](NC(=O)/C(=N\OC(C)(C)C(=O)O)c2csc(N)n2)C(=O)N1S(=O)(=O)O` [AZT, Aztreonam, reference compound], the MIC in the experiment with P. aeruginosa 9027 was 16 µg/mL; in the experiment on K. pneumoniae 700603, 64 µg/mL; in experiment [1], above 64 µg/mL; with E. coli clinical isolate, above 64 µg/mL; in experiment [2], above 64 µg/mL; in the experiment on E. cloacae 700323 it was above 64 µg/mL. The MIC in [3] is above 64 µg/mL; in the experiment on E. coli 8739, 16 µg/mL; in [4] it was 64 µg/mL; with A. baumannii 19606 it was 32 µg/mL.
`CC1(C)[C@H](NC(=O)/C(=N\O[C@@H](COc2ccc(C(=N)N[C@@H]3CCNC3)cc2)C(=O)O)c2nc(N)sc2C(F)(F)F)C(=O)N1OS(=O)(=O)O` [Example 7, (S)-2-((((Z)-1-(2-Amino-5-(trifluoromethyl)thiazol-4-yl)-2-(((S)-2,2-dimethyl-4-oxo-1-(sulfooxy)azetidin-3-yl)amino)-2-oxoethylidene)amino)oxy)-3-(4-(N-((R)-pyrrolidin-3-yl)carbamimidoyl)phenoxy)propanoic acid]: the MIC was found to be 16 µg/mL in the experiment with P. aeruginosa 9027; 8 µg/mL in the experiment with K. pneumoniae 700603; 32 µg/mL in experiment [1]; 32 µg/mL in the experiment on E. coli clinical isolate; 8 µg/mL in [2]; 32 µg/mL in the experiment on E. cloacae 700323. For the same molecule, the MIC in experiment [3] turned out to be 16 µg/mL; with E. coli 8739 it was 8 µg/mL; in [4], 16 µg/mL; in the experiment with A. baumannii 19606, 16 µg/mL.
Take `Cc1sc(N)nc1/C(=N/O[C@@H](COc1ccc(C(=N)N[C@H]2CCNC2)cc1)C(=O)O)C(=O)N[C@@H]1C(=O)N(OS(=O)(=O)O)C1(C)C` [Example 3, (S)-2-((((Z)-1-(2-Amino-5-methylthiazol-4-yl)-2-(((S)-2,2-dimethyl-4-oxo-1-(sulfooxy)azetidin-3-yl)amino)-2-oxoethylidene)amino)oxy)-3-(4-(N-((S)-pyrrolidin-3-yl)carbamimidoyl)phenoxy)propanoic acid]: the MIC in the experiment with P. aeruginosa 9027 amounted to 8 µg/mL; with K. pneumoniae 700603, 64 µg/mL; in experiment [1] it was 64 µg/mL; with E. coli clinical isolate, 4 µg/mL; in [2], 8 µg/mL; in the experiment with E. cloacae 700323, 32 µg/mL. Further, the MIC in [3] came out at 32 µg/mL; in the experiment on E. coli 8739, 4 µg/mL; in [4] it was 32 µg/mL; in the experiment with A. baumannii 19606 it was 32 µg/mL.
In the case of `Cc1sc(N)nc1/C(=N/O[C@@H](COc1ccc(C(=N)N[C@@H]2CCNC2)cc1)C(=O)O)C(=O)N[C@@H]1C(=O)N(S(=O)(=O)O)[C@H]1C` [Example 8, (S)-2-((((Z)-1-(2-amino-5-methylthiazol-4-yl)-2-(((2S,3S)-2-methyl-4-oxo-1-sulfoazetidin-3-yl)amino)-2-oxoethylidene)amino)oxy)-3-(4-(N-((R)-pyrrolidin-3-yl)carbamimidoyl)phenoxy)propanoic acid], the MIC in the experiment with P. aeruginosa 9027 stood at 1 µg/mL; in the experiment with K. pneumoniae 700603 it was 64 µg/mL; in experiment [1], 64 µg/mL; in the experiment with E. coli clinical isolate, 1 µg/mL; in experiment [2], 16 µg/mL; in the experiment with E. cloacae 700323, 32 µg/mL. Also, the MIC was 32 µg/mL in [3], 0.5 µg/mL in the experiment on E. coli 8739, 32 µg/mL in experiment [4] and 16 µg/mL with A. baumannii 19606.
Take `CC(C)(O/N=C(\C(=O)N[C@@H]1C(=O)N2C(C(=O)[O-])=C(C[n+]3ccccc3)CS[C@H]12)c1csc(N)n1)C(=O)O` [CAZ, Ceftazidime, reference compound]: the MIC (with P. aeruginosa 9027; in the experiment on K. pneumoniae 700603; in [1]; in the experiment with E. coli clinical isolate; in [2]; in the experiment on E. cloacae 700323) was above 64 µg/mL in each case. The MIC (in [3]; in the experiment with E. coli 8739; in experiment [4]; in the experiment on A. baumannii 19606) was above 64 µg/mL in each case.
With `Cc1sc(N)nc1/C(=N/O[C@@H](COc1ccc(C(=N)NC2CCNCC2)cc1)C(=O)O)C(=O)N[C@@H]1C(=O)N(OS(=O)(=O)O)C1(C)C` [Example 1, (S)-2-((((Z)-1-(2-Amino-5-methylthiazol-4-yl)-2-(((S)-2,2-dimethyl-4-oxo-1-(sulfooxy)azetidin-3-yl)amino)-2-oxoethylidene)amino)oxy)-3-(4-(N-(piperidin-4-yl)carbamimidoyl)phenoxy)propanoic acid], the MIC stood at 8 µg/mL in the experiment with P. aeruginosa 9027; 32 µg/mL in the experiment with K. pneumoniae 700603; 64 µg/mL in [1]; 4 µg/mL with E. coli clinical isolate; 16 µg/mL in experiment [2]; 32 µg/mL in the experiment with E. cloacae 700323. The MIC in experiment [3] was 32 µg/mL; with E. coli 8739, 4 µg/mL; in experiment [4], 32 µg/mL; with A. baumannii 19606, 16 µg/mL.
